Data reported in patent EP2805705B1, “Packaging with one or more administration units comprising a sodium salt of (R)-3-[6-amino-pyridin-3-yl]-2-(1-cyclohexyl-1 H-imidazol-4-yl)-propionic acid” (IP Gesellschaft für Management mbH, priority 2013, dated 2014).

Assays:
[1] = Dynamic vapor sorption (DVS), SPS11-10µ, one cycle at 25 °C; assay type: physicochemical; settings: DVS isotherm at 25 °C
Description: (§1) Example 7: Dynamic vapor sorption (DVS) of (R)-3-[6-amino-pyridin-3-yl]-2-(1-cyclohexyl-1 H-imidazol-4-yl)-propionic acid sodium salt monohydrate: Moisture sorption/desorption isotherms were recorded on a SPS11-10µ from Projekt Messtechnik (Ulm, Germany). One cycle was run at 25 °C, in which the sample was first stepwise decreased to 0% RH and then the relative humidity was stepwise increased from 0 to 95% and the weight of the sample was measured. Typical total measurement times for both cycles were about 20 to 30 hours. The measured data for the (R)-3-[6-amino-pyridin-3-yl]-2-(1-cyclohexyl-1 H-imidazol-4-yl)-propionic acid sodium salt monohydrate as prepared in Examples 2 or 3 are shown in the following table: DVS Isotherm at 25 °C:
Example 12: DVS, Comparison Experiment: (R)-3-[6-amino-pyridin-3-yl]-2-(1-cyclohexyl-1 H-imidazol-4-yl)-propionic acid as prepared in Example 1 was used for the measurement. The measurement was performed as disclosed in Example 7 with (R)-3-[6-amino-pyridin-3-yl]-2-(1-cyclohexyl-1 H-imidazol-4-yl)-propionic acid (free acid, amorphous) and the received data are shown in the following table: DVS Isotherm at 25 °C
as §1, with “(DVS):” for “(DVS) of (R)-3-[6-amino-pyridin-3-yl]-2-(1-cyclohexyl-1 H-imidazol-4-yl)-propionic acid sodium salt monohydrate:”, “Room humidity (RH)” for “RH”, “dihydrate” for “monohydrate”, “Example” for “Examples 2 or”, “isotherm” for “Isotherm”, “25°C:” for “25 °C:”
Example 9: DVS, Comparison Experiment: (R)-3-[6-amino-pyridin-3-yl]-2-(1-cyclohexyl-1 H-imidazol-4-yl)-propionic acid as prepared in Example 1 was used for the measurement. The measurement was performed as disclosed in Example 7 with (R)-3-[6-amino-pyridin-3-yl]-2-(1-cyclohexyl-1 H-imidazol-4-yl)-propionic acid (free acid, amorphous) and the received data are shown in the following table: DVS Isotherm at 25 °C

[2] = Chiral stability on storage as a solid at 40 °C and 75 % RH (chiral HPLC); assay type: physicochemical
Description: Example 8: Chiral stability: Representative samples of the crystalline sodium salt of (R)-3-[6-amino-pyridin-3-yl]-2-(1-cyclohexyl-1 H-imidazol-4-yl)-propionic acid sodium salt dihydrate as prepared in Example 3 were stored as a solid under the conditions (A) and (B): (A) 40 °C and 75 % RH 2 weeks; (B) 40 °C and 75 % RH 4 weeks: Results are shown in the following table:
Under the storage conditions the samples remain stable. […] The purity was determined by chiral HPLC on a HPLC system containing a Quaternary HPLC pump (e.g. HP 1100), an auto sampler, an UV absorbance detector (e.g. DAD Agilent Technologies or other adequate HPLC-System) and a computer data acquisition system with suitable software (e.g. Dionex-Chromeleon). A Zorbax SB_CN (4.6 x 100 mm, 3.5 µlτ ? ), column was used as stationary phase and two mobile phases A (975 mL water, 25 mL methanol, 1 mL perchloric acid) and B (975 mL methanol, 25 mL water) were used as mobile phases. The flow rate was set to a value of 1.0 mL/minute and the oven temperature was set to 15°C. Detection was performed by absorbance of the compounds at 236 nm (UV) (bandwidth: 4 nm) and reference wavelength was set to 450 nm (bandwidth: 50 nm). Typical total run times were in the range of about 10 minutes. For sample preparation 20 mg of the substance were accurately weighed into a 10 ml volumetric flask and dissolved and diluted to volume with solvent (acetonitrile/water 90:10 VN). Afterwards 1 ml of this solution was transferred to a 10 mL volumetric flask and then diluted to volume with water. For the HPLC analysis 5 µl of the sample were injected into the system. Gradient used: 0 min (time elapsed) 0% mobile phase B, 1 min 0% mobile phase B, 4 min 53% mobile phase B, 6 min 95% mobile phase B, 7 min 95% mobile phase B, 7.5 min 0% mobile phase B and after 10 min 0% mobile phase B. Enanatiomeric excess was determined by chiral HPLC on a HPLC system containing a Quaternary HPLC pump (e.g. HP 1100), an auto sampler, an UV absorbance detector (e.g. DAD Agilent Technologies or other adequate HPLC-System) and a computer data acquisition system with suitable software (e.g. Dionex-Chromeleon). A Chirobiotic R, Supelco (Astec) (4.6 x 250mm; 5µηη) column was used as stationary phase and a solution of 800 mL water, 1200 mL acetonitrile and 1.0 g ammoniumacetate was used as mobile phase. The flow rate was set to a value of 1.5 mL/minute and the oven temperature was set to 45°C. Detection was performed by absorbance of the compounds at 236 nm (UV) (bandwidth: 8 nm) and reference wavelength was set to 450 nm (bandwidth: 50 nm). Typical total run times were in the range of about 15 minutes. For sample preparation 50 mg of the substance were accurately weighed into a 10 mL volumetric flask and dissolved and diluted to volume with solvent (acetonitrile/water 50:50). For the HPLC analysis 5 µí of the sample were injected into the system. Gradient used: Isograt (15 minutes 100% mobile phase A).
Example 10: Chiral stability; Comparison Experiment: (R)-3-[6-amino-pyridin-3-yl]-2-(1-cyclohexyl-1 H-imidazol-4-yl)-propionic acid as prepared in Example 1 was used for the measurement. Representative samples of the compound (R)-3-[6-amino-pyridin-3-yl]-2-(1-cyclohexyl-1 H-imidazol-4-yl)-propionic acid as prepared in Example 1 were stored as a solid under the conditions (A) and (B) as defined in Example 8.

[3] = assay type: physicochemical; settings: At 90% RH, 25°C
Description: Said crystal Form I according to the invention (samples obtained according to the process of scheme 1) was characterized by several physical methods such as X-ray Powder Diffraction, Differential Scanning Calorimetry, Thenno-Gravimetric Analysis, Water-Activity isotherm measurement, as shown below. X-Ray Powder Diffraction (XRPD): XRPD experiments are carried out on a Braker AXS D8 powder diffractometer using the Bragg-Brentano parafocusing geometry. A thin layer of the product is deposited on a single-crystal silicon wafer, cut out according to Si (510) crystallographic orientation that, by systematic extinction, impedes any Bragg reflection. […] Diagrams are recorded in the following conditions: a 1.5 to 40.0° scan in angle 20, 10 and 100 seconds counting time per degree in 20, according to the amount of powder to be analyzed, and ambient conditions of pressure, temperature and relative humidity. […] Between 1.5 and 5 mg of the product to be analyzed is placed in a semi-open aluminum sample pan. An endo thermic peak is recorded (onset around 104°C). […] A controlled relative humidity is generated by mixing different proportions of dry and water saturated carrier gas streams (monitored by mass flow conti llers). […] From the complete moisture sorption and desorption profile an isotherm is calculated using the DVS Advanced Analysis Suite v3.6. […]

[4] = Storage condition (A) 40 °C and 75 % RH 2 weeks, stored as a solid

Nc1ccc(C[C@@H](C(=O)[O-])c2cn(C3CCCCC3)cn2)cn1.O.O.[Na+] [(R)-3-[6-amino-pyridin-3-yl]-2-(1-cyclohexyl-1 H-imidazol-4-yl)-propionic acid sodium salt dihydrate]
Change In Mass (%) Desorption ([1]; Target RH 0.3 %): -0.1% | Change In Mass (%) Desorption ([1]; Target RH 10.0 %): 0.0% | Change In Mass (%) Sorption ([1]; Target RH 10.0 %): 0.0% | Change In Mass (%) Sorption ([1]; Target RH 20.0 %): 0.0% | Change In Mass (%) Desorption ([1]; Target RH 20.1 %): 0.0% | Change In Mass (%) Sorption ([1]; Target RH 30.0 %): 0.0% | Change In Mass (%) Desorption ([1]; Target RH 30.1 %): 0.0% | Change In Mass (%) Sorption ([1]; Target RH 40.0 %): 0.0% | Change In Mass (%) Sorption ([1]; Target RH 50.0 %): 0.0% | Change In Mass (%) Sorption ([1]; Target RH 60.0 %): 0.1% | Change In Mass (%) Sorption ([1]; Target RH 70.1 %): 0.71% | Change In Mass (%) Sorption ([1]; Target RH 75.0 %): 0.8% | Change In Mass (%) Sorption ([1]; Target RH 80.0 %): 2.1% | Change In Mass (%) Sorption ([1]; Target RH 85.1 %): 2.7% | Change In Mass (%) Sorption ([1]; Target RH 90.1 %): 18.8% | Change In Mass (%) Sorption ([1]; Target RH 94.9 %): 51.8% | Enantiomeric excess [2, 4]: 99.6% | Enantiomeric excess ([2]; Storage condition (B) 40 °C and 75 % RH 4 weeks, stored as a solid): 99.5% | Enantiomeric excess ([2]; at the beginning): 99.6%

Nc1ccc(C[C@@H](C(=O)O)c2cn(C3CCCCC3)cn2)cn1 [(R)-3-[6-amino-pyridin-3-yl]-2-(1-cyclohexyl-1 H-imidazol-4-yl)-propionic acid]
Change In Mass (%) Desorption ([1]; Target RH 0.4 %): -1.6% | Change In Mass (%) Sorption ([1]; Target RH 10.0 %): -0.5% | Change In Mass (%) Desorption ([1]; Target RH 10.1 %): 0.3% | Change In Mass (%) Desorption ([1]; Target RH 20.0 %): 1.1% | Change In Mass (%) Sorption ([1]; Target RH 20.0 %): 0.5% | Change In Mass (%) Sorption ([1]; Target RH 30.0 %): 1.9% | Change In Mass (%) Desorption ([1]; Target RH 30.1 %): 1.7% | Change In Mass (%) Sorption ([1]; Target RH 40.1 %): 3.9% | Change In Mass (%) Sorption ([1]; Target RH 50.0 %): 6.6% | Change In Mass (%) Sorption ([1]; Target RH 60.1 %): 9.6% | Change In Mass (%) Sorption ([1]; Target RH 70.0 %): 13.4% | Change In Mass (%) Sorption ([1]; Target RH 75.0 %): 15.0% | Change In Mass (%) Sorption ([1]; Target RH 80.1 %): 16.9% | Change In Mass (%) Sorption ([1]; Target RH 85.1 %): 20.1% | Change In Mass (%) Sorption ([1]; Target RH 89.9 %): 25.1% | Change In Mass (%) Sorption ([1]; Target RH 95.0 %): 32.3% | Enantiomeric excess [2, 4]: 94.9% | Enantiomeric excess ([2]; at the beginning): 98.2%

COc1ccc(/C=C\c2cc(OC)c(OC)c(OC)c2)cc1NC(=O)[C@@H](N)CO [crystal Form I, (2S)-2-amino-3-hydroxy-N-[2-methoxy-2-[(1Z)-2-(3,4,5-trimethoxyphenyl)ethenyl]phenyl] propanamide]
total water uptake [3]: less than 0.15 % (w/w)
